In patent publication US20080280952A1 (priority 2004, published 2008) one finds EC50 and Emax data, which are given here for 17 compounds.

For this experiment, the target named is T1, human cannabinoid CB2 receptor (Homo sapiens, UniProt P34972).
T1 construct: expressed in transfected cells; host or cells: Saccharomyces cerevisiae strain MMY23 (cassette integrated at the ura3 locus, GPD promoter)
Kind of experiment: Cannabinoid CB2 receptor agonist activity, yeast reporter assay. Type of experiment: cell-based. The following applies: for Emax: read-out: efficacy (Emax) at the cloned human cannabinoid CB2 receptor. The procedure: The cannabinoid CB2 receptor agonist activity of the compounds of formula (I) was determined in accordance with the following experimental method.
Yeast (Saccharomyces cerevisiae) cells expressing the human cannabinoid CB2 receptor were generated by integration of an expression cassette into the ura3 chromosomal locus of yeast strain MMY23. This cassette consisted of DNA sequence encoding the human CB2 receptor flanked by the yeast GPD promoter to the 5′ end of CB2 and a yeast transcriptional terminator sequence to the 3′ end of CB2. MMY23 expresses a yeast/mammalian chimeric G-protein alpha subunit in which the C-terminal 5 amino acids of Gpa1 are replaced with the C-terminal 5 amino acids of human Gαi3 (as described in Brown et al. (2000), Yeast 16:11-22).
Agonists were prepared as 10 mM stocks in DMSO. […] Agonist solutions in DMSO (1% final assay volume) were transferred into black, clear bottom, microtitre plates from NUNC (96- or 384-well). Cells were suspended at a density of 0.2 OD600/ml in SC media lacking histidine, uracil, tryptophan, adenine and leucine and supplemented with 10 mM 3-aminotriazole, 0.1M sodium phosphate pH 7.0, and […] fluorescein di-β-D-glucopyranoside (FDGlu). […] Fluorescence was plotted against compound concentration and iteratively curve fitted using a four parameter fit to generate a concentration effect value. Efficacy (Emax) was calculated from the equation
Equieffective molar ratio (EMR) values were calculated from the equation

T1 sequence (P34972 whole entry): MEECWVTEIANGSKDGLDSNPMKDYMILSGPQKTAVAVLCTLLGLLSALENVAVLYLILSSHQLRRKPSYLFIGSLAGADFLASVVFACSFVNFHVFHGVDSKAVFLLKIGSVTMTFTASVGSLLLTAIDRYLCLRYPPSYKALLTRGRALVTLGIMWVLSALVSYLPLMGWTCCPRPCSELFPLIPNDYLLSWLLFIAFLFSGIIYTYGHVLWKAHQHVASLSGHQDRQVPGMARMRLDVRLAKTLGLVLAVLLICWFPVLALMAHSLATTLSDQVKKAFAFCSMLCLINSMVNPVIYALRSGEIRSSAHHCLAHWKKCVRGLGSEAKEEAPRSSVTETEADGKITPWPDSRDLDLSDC

The EC50 is the midpoint of the concentration-response curve. A higher EC50 goes with a need for much substance. A word on the Emax: it is the greatest response seen or fitted, relative to the assay's reference. On to `O=C(NCC1CCOCC1)c1cnc(Nc2ccc(F)c(F)c2)cc1C1CC1` [Example 113, 4-Cyclopropyl-6-(3,4-difluoro-phenylamino)-N-(tetrahydro-pyran-4-ylmethyl)-nicotinamide], for which the concentration giving a half-maximal response (EC50) lay within 0.3 to 1 µM and the maximum response (Emax) was greater than 50%.

As to `O=C(NCC1CCC1)c1cnc(Nc2ccc(F)c(C(F)(F)F)c2)cc1C1CC1` [Example 123, N-Cyclobutylmethyl-4-cyclopropyl-6-(4-fluoro-3-trifluoromethyl-phenylamino)-nicotinamide], the EC50 is 0.3 to 1 µM and the Emax is greater than 50%.

As to `O=C(NCC1CCCC1)c1cnc(Nc2cccc(F)c2F)cc1C1CC1` [Example 122, N-Cyclopentylmethyl-4-cyclopropyl-6-(2,3-difluoro-phenylamino)-nicotinamide], the EC50 was in the range of 0.3 to 1 µM and the Emax is greater than 50%.

As to `N#Cc1ccc(Nc2cc(C3CCCC3)c(C(=O)NCC3CCOCC3)cn2)cc1` [Example 27, 6-(4-Cyano-phenylamino)-4-cyclopentyl-N-(tetrahydro-pyran-4-ylmethyl)-nicotinamide], the EC50 lay within 0.3 to 1 µM and the Emax is greater than 50%.

In the case of `Cc1ccc(Nc2cc(C3CC3)c(C(=O)NCC3CCOCC3)cn2)cc1F` [Example 111, 4-Cyclopropyl-6-(3-fluoro-4-methyl-phenylamino)-N-(tetrahydro-pyran-4-ylmethyl)-nicotinamide], the EC50 was in the range of 0.3 to 1 µM and the Emax is greater than 50%.

Turning to `O=C(NCC1CCOCC1)c1cnc(Nc2ccc(Br)c(Cl)c2)cc1C1CC1` [Example 91, 6-(4-Bromo-3-chloro-phenylamino)-4-cyclopropyl-N-(tetrahydro-pyran-4-ylmethyl)-nicotinamide], the EC50 is 0.3 to 1 µM and the Emax was greater than 50%.

For `N#Cc1cccc(Nc2cc(C3CCCC3)c(C(=O)NCC3CCOCC3)cn2)c1` [Example 16, 6-(3-Cyano-phenylamino)-4-cyclopentyl-N-(tetrahydro-pyran-4-ylmethyl)-nicotinamide], the EC50 is 0.3 to 1 µM and the Emax is greater than 50%.

Consider `O=C(NCC1CCOCC1)c1cnc(Nc2ccc(Br)c(F)c2)cc1C1CC1` [Example 97, 6-(4-Bromo-3-fluoro-phenylamino)-4-cyclopropyl-N-(tetrahydro-pyran-4-ylmethyl)-nicotinamide], for which the EC50 was 0.3 to 1 µM and the Emax was greater than 50%.

With `O=C(NCC1CCOCC1)c1cnc(Nc2cc(C(F)(F)F)ccc2F)cc1C1CC1` [Example 102, 4-Cyclopropyl-6-(2-fluoro-5-trifluoromethyl-phenylamino)-N-(tetrahydro-pyran-4-ylmethyl)-nicotinamide], the EC50 was in the range of 0.3 to 1 µM and the maximum response (Emax) is greater than 50%.

For the compound `Cc1cc(Cl)ccc1Nc1cc(C2CCCC2)c(C(=O)NCC2CCOCC2)cn1` [Example 23, 6-(4-Chloro-2-methyl-phenylamino)-4-cyclopentyl-N-(tetrahydro-pyran-4-ylmethyl)-nicotinamide], the EC50 was in the range of 0.3 to 1 µM and the Emax is greater than 50%.

Take `O=C(NCC1CCCC1)c1cnc(Nc2cccc(Cl)c2Cl)cc1C1CC1` [Example 119, N-Cyclopentylmethyl-4-cyclopropyl-6-(2,3-dichloro-phenylamino)-nicotinamide]: the EC50 was 0.3 to 1 µM and the Emax was greater than 50%.

Turning to `O=C(NCC1CCCC1)c1cnc(Nc2ccc(C(F)(F)F)c(Cl)c2)cc1C1CC1` [Example 120, 6-(3-Chloro-4-trifluoromethyl-phenylamino)-N-cyclopentylmethyl-4-cyclopropyl-nicotinamide], the EC50 is 0.3 to 1 µM and the Emax is greater than 50%.

As for `O=C(NCC1CCC1)c1cnc(Nc2ccc(F)cc2Cl)cc1C1CC1` [Example 116], the EC50 fell in the range of 0.3 to 1 µM and the Emax is greater than 50%.

Regarding `COc1cccc(Nc2cc(C3CC3)c(C(=O)NCC3CCC3)cn2)c1` [Example 115, N-Cyclobutylmethyl-4-cyclopropyl-6-(3-methoxy-phenylamino)-nicotinamide], the EC50 was 0.3 to 1 µM and the maximal effect (Emax) is greater than 50%.

Consider `Cc1cccc(Nc2cc(C3CC3)c(C(=O)NCC3CCOCC3)cn2)c1C#N` [Example 109, 6-(2-Cyano-3-methyl-phenylamino)-4-cyclopropyl-N-(tetrahydro-pyran-4-ylmethyl)-nicotinamide], for which the concentration giving a half-maximal response (EC50) is 0.3 to 1 µM and the Emax is greater than 50%.

For `Cc1cccc(Nc2cc(C3CC3)c(C(=O)NCC3CCCC3)cn2)c1` [Example 117, N-Cyclopentylmethyl-4-cyclopropyl-6-(3-methyl-phenylamino)-nicotinamide], the EC50 is 0.3 to 1 µM and the Emax is greater than 50%.

On to `O=C(NCC1CCOCC1)c1cnc(Nc2ccc(OC(F)(F)F)cc2Br)cc1C1CC1` [Example 96, 6-(2-Bromo-4-trifluoromethoxy-phenylamino)-4-cyclopropyl-N-(tetrahydro-pyran-4-ylmethyl)-nicotinamide], for which the EC50 lay in the range of 0.3 to 1 µM and the Emax is greater than 50%.
